According to PMC12386809, “Phenanthrene Monomers and Dimers from Juncus tenuis with Antiproliferative Activity and Synergistic Effect with Doxorubicin Against Human Colon Cancer Cell Lines” (International Journal of Molecular Sciences, 2025):
Read-outs that look alike come from different tables or passages of the source.

Experiments:
[1] = system: COLO 205 (doxorubicin-sensitive) human colonic adenocarcinoma cells; assay: MTT antiproliferative assay, COLO 205; assay type: cell-based; conditions: read-out: IC50 (µM) ± SD COLO 205
Method: (§1) The antiproliferative effects of the isolated phenanthrenes (compounds 1–19) were evaluated using human cancer cell lines, including doxorubicin-sensitive colonic adenocarcinoma COLO 205 and multidrug-resistant colonic adenocarcinoma COLO 320/MDR-LRP (which expresses P-glycoprotein [MDR1] and LRP), as well as non-cancerous human lung fibroblast CCD-19Lu cells. CCD-19Lu was chosen because it is a well-characterized, non-tumorigenic cell line commonly used to assess general cytotoxicity. Moreover, data from the literature support the use of lung fibroblast cell lines—including CCD-19Lu—as normal controls in studies involving colon cancer cells such as Colo 205 and Colo 320 [33]. The thiazolyl blue tetrazolium bromide (MTT) assay was employed to determine the concentration of each compound required to inhibit 50% of the cell viability (IC50), as summarized in Table 3.
(§2) The human colon adenocarcinoma cells—COLO 205 (CCL-222, doxorubicin-sensitive) and COLO 320/MDR-LRP (ATCC-CCL-220.1, multidrug-resistant, expressing P-gp)—were cultured in RPMI 1640 medium supplemented with 10% heat-inactivated fetal bovine serum, 2 mM of L-glutamine, 1 mM of sodium pyruvate, and 100 mM of HEPES. The non-cancerous human lung fibroblast cell line CCD-19Lu was maintained in Eagle’s Minimal Essential Medium (EMEM; containing 4.5 g/L of glucose) supplemented with a non-essential amino acid mixture, selected vitamins, and 10% heat-inactivated fetal bovine serum. All of the cell lines were detached using 0.25% trypsin and 0.02% EDTA for 5 min at 37 °C. The cell lines were obtained from LGC Promochem (Teddington, England).
(§3) Human colonic adenocarcinoma cell lines—doxorubicin-sensitive COLO 205 and multidrug-resistant COLO 320—as well as the non-cancerous human lung fibroblast cell line CCD-19Lu were used to evaluate the effects of the test compounds on cell proliferation. The assays were conducted in 96-well flat-bottomed microtiter plates. Stock solutions of the compounds were prepared in dimethyl sulfoxide (DMSO), with the final DMSO concentration kept below 1% in all samples. The compounds were diluted in 100 µL of the appropriate culture medium. Adherent cells were cultured in EMEM supplemented with 10% heat-inactivated fetal bovine serum and seeded into 96-well plates at a density of 6 × 10^3 cells per 100 µL per well. The cells were allowed to adhere for 24 h at 37 °C in a humidified incubator with 5% CO2. After incubation, the medium was removed and replaced with 100 µL of fresh medium. Serial dilutions of the compounds were prepared in separate plates and added to the cells, starting from a concentration of 100 µM with twofold serial dilutions (final concentration range: 100–0.19 µM). The cells were then incubated for 72 h at 37 °C. At the end of the incubation period, 20 µL of thiazolyl blue tetrazolium bromide (MTT) solution (5 mg/mL, Sigma) was added to each well. After 4 h of incubation at 37 °C, 100 µL of 10% sodium dodecyl sulfate (SDS) in 0.01 M HCl was added to solubilize the formazan crystals, and the plates were incubated overnight at 37 °C. Cell viability was assessed by measuring the optical density (OD) at 540/630 nm using a Multiscan EX ELISA reader (Thermo Labsystems, Cheshire, WA, USA).
(§4) The inhibitory concentration that reduced cell growth by 50% (IC50) was determined from the dose–response curves. The percent inhibition was calculated using the formula100 − ((OD_sample − OD_medium control)/(OD_cell control − OD_medium control)) × 100
(§5) Dose–response curves were generated by plotting the percent inhibition against the logarithm of the compound concentrations and fitted using Prism5 software (Version 6, GraphPad Software Inc., San Diego, CA, USA). The IC50 values were derived from four independent experiments conducted in parallel for each cell line and are reported as the mean values.

[2] = system: COLO 320/MDR-LRP multidrug-resistant human colonic adenocarcinoma cells; assay: MTT antiproliferative assay, COLO 320; assay type: cell-based; conditions: COLO 320 (multidrug-resistant), read-out: IC50 (µM) ± SD COLO 320
Method: as §1, §2, §3, §4, §5

[3] = system: CCD-19Lu non-cancerous human lung fibroblast cells; assay: MTT antiproliferative assay, CCD-19Lu; assay type: cell-based; conditions: 72 h, CCD-19Lu non-tumorigenic fibroblasts, read-out: IC50 (µM) ± SD CCD-19Lu
Method: as §1, §2, §3, §4, §5

[4] = system: multidrug-resistant COLO 320 cells; assay: Drug combination assay with doxorubicin (Chou-Talalay, MTT); assay type: cell-based, human; conditions: for Interaction: interaction with doxorubicin in COLO 320, class from CI; for CI at ED50 (combination index): combination with doxorubicin, COLO 320, 72 h, Chou-Talalay
Method: One promising approach involves the discovery of new bioactive natural products. To explore this, a chemosensitivity assay was conducted to examine the in vitro interactions between the isolated compounds and the antineoplastic agent doxorubicin, a substrate of P-glycoprotein (P-gp). A combination chemotherapy model was applied using human COLO 320 colon carcinoma cells. The combination index (CI), calculated according to the Chou–Talalay method, was used to evaluate drug–drug interactions, classifying them as synergistic (CI < 1), additive (CI = 1), or antagonistic (CI > 1) (Table 4).
The multidrug-resistant COLO 320 cell line was used to perform the drug combination assay. Doxorubicin (2 mg/mL, Teva Pharmaceuticals, Budapest, Hungary) was serially diluted horizontally, starting with 8.6 µM. The resistance modifier was subsequently diluted vertically, with the starting concentration determined based on the IC50 value. Doxorubicin was diluted horizontally in 100 µL, while the resistance modifiers were diluted vertically in 50 µL in the microtiter plate. The compounds and doxorubicin were prepared as separate dilutions. The cells were seeded at a density of 6 × 10^3 cells per well into 100 µL of medium and incubated for 24 h at 37 °C in a 5% CO2 atmosphere prior to treatment. After this period, the culture medium was removed, and 50 µL of fresh medium was added to each well, followed by the addition of 50 µL of the diluted compounds, resulting in a final volume of 200 µL per well. The plates were then incubated for 72 h at 37 °C under 5% CO2. The cell viability was assessed at the end of incubation using the MTT assay, as described previously. Drug interactions were analyzed using CompuSyn software (Version 1.00).
The dose–response curves for individual agents and their combinations were fitted to a linear model based on the median-effect equation to calculate the median effective dose (IC50) and the slope (m). The quality of the fit was evaluated using the linear correlation coefficient (r), and only data with r > 0.90 are reported. The extent of drug interaction was quantified using the combination index (CI), where CI ≈ 1 indicated an additive effect, CI < 1 signified synergy, and CI > 1 denoted antagonism.

[5] = system: HT22 cells (mouse hippocampal neuroblastoma cell line); set-up: method as in doi:10.1007/s11101-018-9561-5, PMID 25794817; conditions: 100 µM, 24 h; cited from earlier work

Compound | IC50 ([1]; Homo sapiens, COLO 205, 72 h) | IC50 ([2]; Homo sapiens, COLO 320, 72 h) | IC50 [3] | IC50 ([1]; 72 h) | IC50 ([2]; 72 h) | Interaction [4] | CI at ED50 (combination index) [4] | IC50 ([1]; Homo sapiens, 72 h) | IC50 ([2]; Homo sapiens, 72 h) | decrease in MTT reduction [5]
C=Cc1cc(O)cc2ccc3c(c12)C=CC(=O)C3(C)O (stereo not shown) [Compound 1, Tenuin A] | > 100 µM | > 100 µM | > 100 µM | – | – | – | – | – | – | –
C=Cc1cc2c(ccc3c(C)c(O)ccc32)cc1CO [Compound 2, tenuin B] | 48.4 µM | 38.3 µM | 96.08 ± 0.82 µM | 48.4 ± 1.03 µM | 38.3 ± 1.84 µM | very strong synergism (CI < 0.1 indicates very strong synergism) | – | – | – | –
C=Cc1cc(O)c(CO)c2c1-c1ccc(O)c(C)c1CC2 [Compound 3, 2,7-dihydroxy-8-hydroxymethyl-1-methyl-5-vinyl-9,10-dihydrophenanthrene] | > 100 µM | > 100 µM | 96.8 ± 1.79 µM | – | – | – | – | – | – | –
C=Cc1cc(O)cc2c1-c1cc(-c3cc4c(c(C)c3O)CCc3cc(O)cc(C(C)OC)c3-4)c(O)c(C)c1CC2 (stereo not shown) [Compound 4, tenuin D] | 7.6 ± 0.13 µM | 15.7 ± 2.2 µM | 9.93 ± 0.84 µM | – | – | synergism (0.3 < CI < 0.7, synergism) | 0.669 | – | – | –
C=Cc1cc(O)cc2c1-c1cc(-c3c(O)cc4c(c3C=C)-c3ccc(O)c(C)c3CC4)c(O)c(C)c1CC2 [Compound 5, 1,1′-dimethyl-5,5′-divinyl-9,9′,10,10′-tetrahydro-[6,3′-biphenanthrene]-2,2′,7,7′-tetraol] | 11.6 µM | 12 ± 1.58 µM | 13.8 ± 0.82 µM | 11.6 ± 0.22 µM | – | synergism (0.3 < CI < 0.7, synergism) | 0.433 | – | – | –
C=Cc1cc(O)cc2ccc3c(C)c(O)ccc3c12 [Compound 6, dehydroeffusol] | – | – | 58.17 ± 0.51 µM | – | – | – | 0.266 | 36.7 ± 2.29 µM | 35.6 ± 3.89 µM | –
C=Cc1c(C)c(O)cc2ccc3c(C)c(O)ccc3c12 [Compound 7, dehydrojuncusol] | – | – | 42.04 ± 0.39 µM | – | – | – | 0.117 | 28.16 ± 0.27 µM | 45.3 ± 2.78 µM | –
C=Cc1c(CO)ccc2c1ccc1c(C)c(O)ccc12 [Compound 9] | > 100 µM | 42.6 ± 2.98 µM | 75.3 ± 2.59 µM | – | – | moderate antagonism | 1.427 | – | – | –
C=Cc1cc(O)cc2c1-c1ccc(OC)c(C)c1CC2 [Compound 12] | 34.73 ± 0.1 µM | 25.5 ± 2.05 µM | 28.7 ± 1.11 µM | – | – | moderate antagonism | 1.347 | – | – | –
C=Cc1cc(CO)cc2c1-c1ccc(O)c(C)c1CC2 [Compound 13] | 37 ± 3.28 µM | 35.2 ± 4.68 µM | 69.3 ± 1.77 µM | – | – | – | 0.163 | – | – | –
C=Cc1cc(C=O)cc2c1-c1ccc(O)c(C)c1CC2 [Compound 14] | 57.2 ± 3.98 µM | 39.58 ± 0.27 µM | 66.4 ± 1.58 µM | – | – | – | 0.219 | – | – | –
C=Cc1cc(C(=O)O)cc2c1-c1ccc(O)c(C)c1CC2 [Compound 15] | 45.4 ± 2.16 µM | 47.6 ± 1.01 µM | > 100 µM | – | – | antagonism (1.45 < CI < 3.3, antagonism) | 1.927 | – | – | –
C=Cc1c(C)c(O)cc2c1-c1ccc(OC)c(C)c1CC2 [Compound 16, compressin A] | 35.8 ± 2.7 µM | 19.2 ± 0.32 µM | 28 ± 2.73 µM | – | – | antagonism (1.45 < CI < 3.3, antagonism) | 2.312 | – | – | –
C=Cc1cc(O)c(C)c2c1-c1ccc(O)c(C)c1CC2 [Compound 17, 2,7-dihydroxy-1,8-dimethyl-5-vinyl-9,10-dihydrophenanthrene] | 43.2 ± 3.82 µM | 35.1 ± 1.1 µM | 64.7 ± 3.36 µM | – | – | synergism (0.3 < CI < 0.7, synergism) | 0.670 | – | – | –
C=Cc1c(CO)ccc2c1CCc1c-2ccc(O)c1C [Compound 18] | 50.2 ± 0.74 µM | 31.5 ± 2.65 µM | 70.8 ± 3.25 µM | – | – | – | 0.189 | – | – | –
C=Cc1cc(O)cc2c1-c1cc(-c3cc4c(c(C)c3O)CCc3cc(O)cc(C=C)c3-4)c(O)c(C)c1CC2 [Compound 19, effususin A] | 10.9 µM | 17.3 ± 0.87 µM | 18.8 ± 0.06 µM | 10.9 ± 0.51 µM | – | – | – | – | – | –
COc1cccc2c1C(=O)c1c(O)c3c(c(O)c1C2=O)C[C@@](O)(C(=O)CO)C[C@@H]3O[C@H]1C[C@H](N)[C@H](O)[C@H](C)O1 [doxorubicin] | 0.53 ± 0.05 µM | 1.72 ± 0.5 µM | 1.03 ± 0.18 µM | – | – | – | – | – | – | –
C=Cc1c(C)c(O)cc2c1CCc1c-2ccc(O)c1C [juncuenin B, reference compound] | – | – | – | – | – | – | – | – | – | 13.6%
